{"source": "patent US20170056423A1", "about": "(Gilead Sciences, Inc., priority 2012, published 2017)", "key": {"[1]": {"tested_on": "HIV-1", "settings": "against HIV-1 in T cells, activated PBMCs, and macrophages"}, "[2]": {"settings": "25 mg level", "experimental": "In order to provide a robust assessment of pharmacokinetic comparisons between test versus reference treatments, a balanced Williams 4×4 design was used in each cohort.\nThe evaluation used two cohorts of twenty patients. In Cohort 1, the following study treatments were administered."}, "[3]": {"target": "human pregnane X receptor (Homo sapiens, UniProt O75469)", "sequence (O75469 whole entry)": "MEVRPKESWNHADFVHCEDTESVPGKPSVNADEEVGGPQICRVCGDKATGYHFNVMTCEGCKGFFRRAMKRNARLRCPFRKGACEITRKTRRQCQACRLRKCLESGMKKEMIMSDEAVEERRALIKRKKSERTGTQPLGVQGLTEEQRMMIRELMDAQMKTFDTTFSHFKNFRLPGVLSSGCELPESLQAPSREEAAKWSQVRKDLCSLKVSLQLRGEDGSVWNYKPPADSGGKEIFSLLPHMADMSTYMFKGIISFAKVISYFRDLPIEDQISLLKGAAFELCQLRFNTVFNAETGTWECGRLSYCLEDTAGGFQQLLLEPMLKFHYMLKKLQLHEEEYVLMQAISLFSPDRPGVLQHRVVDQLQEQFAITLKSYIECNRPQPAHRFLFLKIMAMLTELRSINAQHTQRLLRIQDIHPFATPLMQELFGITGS", "assay": "pregnane X receptor activation"}, "[4]": {"settings": "Study 1, while receiving GS-7340 SA (25 mg)"}, "[5]": {"target": "UGT1A1 (Homo sapiens, UniProt P22309)", "sequence (P22309 26-533)": "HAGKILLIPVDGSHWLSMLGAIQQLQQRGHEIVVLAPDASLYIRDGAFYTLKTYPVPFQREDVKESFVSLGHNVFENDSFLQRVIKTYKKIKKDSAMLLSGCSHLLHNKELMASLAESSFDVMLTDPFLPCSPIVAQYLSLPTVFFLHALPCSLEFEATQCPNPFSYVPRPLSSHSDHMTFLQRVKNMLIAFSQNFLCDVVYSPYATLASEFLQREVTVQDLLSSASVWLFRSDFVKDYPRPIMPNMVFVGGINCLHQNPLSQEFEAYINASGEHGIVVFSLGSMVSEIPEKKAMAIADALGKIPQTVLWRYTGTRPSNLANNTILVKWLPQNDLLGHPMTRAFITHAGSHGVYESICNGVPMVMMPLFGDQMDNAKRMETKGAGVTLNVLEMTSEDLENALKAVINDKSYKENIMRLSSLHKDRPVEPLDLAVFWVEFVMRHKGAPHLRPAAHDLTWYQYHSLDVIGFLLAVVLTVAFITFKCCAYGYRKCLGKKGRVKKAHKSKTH", "settings": "at concentrations up to 50 μM"}, "[6]": {"tested_on": "cytochrome P450 enzymes (all isoforms tested)", "assay": "in vitro", "settings": "human"}, "[7]": {"target": "aryl hydrocarbon receptor (Homo sapiens, UniProt P35869)", "sequence (P35869 11-848, species assumed)": "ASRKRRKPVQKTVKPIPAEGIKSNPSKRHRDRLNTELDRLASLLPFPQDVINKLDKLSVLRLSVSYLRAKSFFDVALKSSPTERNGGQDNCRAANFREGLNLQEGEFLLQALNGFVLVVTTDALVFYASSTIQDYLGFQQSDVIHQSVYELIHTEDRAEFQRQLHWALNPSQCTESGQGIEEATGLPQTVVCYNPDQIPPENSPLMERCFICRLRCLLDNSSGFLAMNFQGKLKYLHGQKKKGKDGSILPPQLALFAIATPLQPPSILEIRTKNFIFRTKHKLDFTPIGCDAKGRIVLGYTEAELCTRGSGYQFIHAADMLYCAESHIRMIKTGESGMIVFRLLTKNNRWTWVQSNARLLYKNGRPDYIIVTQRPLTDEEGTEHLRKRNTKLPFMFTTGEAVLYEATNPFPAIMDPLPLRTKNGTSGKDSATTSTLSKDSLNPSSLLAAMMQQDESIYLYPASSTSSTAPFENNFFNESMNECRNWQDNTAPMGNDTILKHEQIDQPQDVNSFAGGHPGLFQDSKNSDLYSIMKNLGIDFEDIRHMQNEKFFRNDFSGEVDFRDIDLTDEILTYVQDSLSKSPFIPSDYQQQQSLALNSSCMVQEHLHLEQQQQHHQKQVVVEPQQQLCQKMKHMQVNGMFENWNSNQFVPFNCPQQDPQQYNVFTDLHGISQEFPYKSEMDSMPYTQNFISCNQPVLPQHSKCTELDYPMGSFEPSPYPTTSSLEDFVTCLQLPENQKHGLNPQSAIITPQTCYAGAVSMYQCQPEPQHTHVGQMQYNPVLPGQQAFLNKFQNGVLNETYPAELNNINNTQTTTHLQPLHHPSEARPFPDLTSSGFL", "assay": "aryl hydrocarbon receptor activation"}}, "note": "Read-outs that look alike come from different tables or passages of the source.", "data": [{"smiles": "CC(C)OC(=O)[C@H](C)N[P@](=O)(CO[C@H](C)Cn1cnc2c(N)ncnc21)Oc1ccccc1", "note": "[GS-7340, 9-[(R)-2-[[(S)-[[(S)-1-(isopropoxycarbonyl)ethyl]amino]phenoxyphosphinyl]methoxy]propyl]adenine]", "values": [{"measurement": "enhanced anti-HIV activity relative to tenofovir", "setting": "[1]", "value": "500- to 1000 fold"}, {"measurement": "GS-7340 levels, fold higher when administered with cobicistat", "setting": "[2]; Cohort 1 (Formulation 1, monolayer), FIG. 6", "value": 2.2, "unit": "fold"}, {"measurement": "GS-7340 levels, fold higher when administered with cobicistat", "setting": "[2]; Cohort 2 (Formulation 2, bilayer), FIG. 7", "value": 2.2, "unit": "fold"}, {"measurement": "activation of human pregnane X receptor", "setting": "[3]", "value": "not an activator"}, {"measurement": "adverse event leading to one discontinuation", "setting": "[4]", "value": "rhabdomyolysis (Grade 2)"}, {"measurement": "inhibition of UGT1A1 function", "setting": "[5]", "value": "does not inhibit"}, {"measurement": "IC50", "setting": "[6]", "value": "> 7", "unit": "µM"}, {"measurement": "activation of aryl hydrocarbon receptor", "setting": "[7]", "value": "not an activator"}]}]}
